Source: ChEMBL document CHEMBL6134826, “Cross-subclass metallo-β-lactamase inhibitors: From structural and catalytic commonalities guiding design” (Eur J Med Chem, 2025)

Columns and labels:
Bacteria [1] = experiment: Inhibition of IMP-1 (unknown origin) at 100 uM relative to control
Bacteria [2] = experiment: Inhibition of L1 (unknown origin) at 100 uM relative to control
[3] = Inhibition of Sfh-1 (unknown origin); set-up: species or system Bacteria
[4] = Binding affinity to VIM-2 (unknown origin) assessed as inhibition constant; set-up: species or system Bacteria
[5] = Binding affinity to L1 (unknown origin) assessed as inhibition constant; set-up: species or system Bacteria
[6] = Binding affinity to Sfh-1 (unknown origin) assessed as inhibition constant; set-up: species or system Bacteria
[7] = Inhibition of IMP-1 (unknown origin); set-up: species or system Bacteria
[8] = molecular target: T1, Metallo-beta-lactamase type 2 (Bacteria, UniProt C7C422); experiment: Inhibition of NDM-1 (unknown origin) using nitrocefin as substrate by colorimetric assay
[9] = Inhibition of ImiS (unknown origin); set-up: species or system Bacteria
[10] = Binding affinity to IMP-1 (unknown origin) assessed as inhibition constant; set-up: species or system Bacteria
[11] = Inhibition of L1 (unknown origin); set-up: species or system Bacteria
[12] = molecular target: T1, Metallo-beta-lactamase type 2; experiment: Binding affinity to NDM-1 (unknown origin) assessed as inhibition constant
[13] = Inhibition of CphA (unknown origin); set-up: species or system Bacteria
[14] = Inhibition of BcII (unknown origin); set-up: species or system Bacteria
[15] = molecular target: Metallo-beta-lactamase type 2 (Bacteria) (UniProt C7C422); experiment: Inhibition of NDM-1 (unknown origin) at 100 uM relative to control
[16] = Binding affinity to BcII (unknown origin) assessed as inhibition constant; set-up: species or system Bacteria
[17] = molecular target: T1, Metallo-beta-lactamase type 2; experiment: Inhibition of NDM-1 (unknown origin)
[18] = Inhibition of recombinant VIM-2 (unknown origin); set-up: species or system Bacteria
[19] = molecular target: T1, Metallo-beta-lactamase type 2; experiment: Inhibition of NDM-1 (unknown origin)using fluorescent cephalosporin as substrate preincubated for 10 mins followed by substrate addition by fluorescence based assay

T1 sequence (C7C422 whole entry): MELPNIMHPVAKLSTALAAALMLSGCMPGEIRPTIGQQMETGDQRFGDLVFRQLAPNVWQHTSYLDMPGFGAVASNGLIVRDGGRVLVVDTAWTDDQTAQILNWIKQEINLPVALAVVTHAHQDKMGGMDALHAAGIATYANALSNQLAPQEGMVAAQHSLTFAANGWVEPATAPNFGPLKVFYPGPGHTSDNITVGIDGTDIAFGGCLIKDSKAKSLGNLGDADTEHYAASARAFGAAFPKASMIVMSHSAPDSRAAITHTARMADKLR
Metallo-beta-lactamase type 2 (Bacteria), sequence (C7C422 whole entry): as above

Q: With CC(=O)OC1C2CCC(C(=O)O)N2P1(=O)O (centres undefined) as the compound, how does the inhibition (Bacteria [1]) read?
A: 70%

Q: What about the inhibition (Bacteria [2]) of the same compound?
A: 70%

Q: What does the source list for O=C(O)[C@@H]1CS[C@H]2CS[C@H](CS)N21?
A: IC50 [3]: 260 nM; Ki [4]: 2900 nM; Ki [5]: 12000 nM

Q: With C[C@]1(Cn2ccnn2)[C@H](C(=O)O)N2C(=O)C[C@H]2S1(=O)=O [TAZOBACTAM] as the compound, how does the Ki [4] read?
A: 128000 nM

Q: What about the Ki [6] of the same compound?
A: 62200 nM

Q: With CCN(CC)C(=S)SSC(=S)N(CC)CC [DISULFIRAM] as the compound, how does the IC50 [7] read?
A: 2900 nM

Q: And the IC50 [8]?
A: 130 nM

Q: And the IC50 [9]?
A: 3600 nM

Q: Which Ki [10] does the source give for CNCc1ccc([C@@H]2C[C@@H](SC3=C(C(=O)O)N4C(=O)[C@H]([C@@H](C)O)[C@H]4[C@H]3C)CN2)cc1 here?
A: 180 nM

Q: With CCOC(=O)[C@]1(CS)N[C@H](C(=O)O)CS1 as the compound, how does the IC50 [3] read?
A: 1300 nM

Q: What about the IC50 [11] of the same compound?
A: 20000 nM

Q: What about the Ki [12] of the same compound?
A: 440 nM

Q: For CCN(CC)c1ccc2c(-c3ccccc3C(=O)OCCn3[se]c4ccccc4c3=O)c3ccc(N(CC)CC)cc3[o+]c2c1, which IC50 [7] is on record?
A: 460 nM

Q: And the IC50 [8]?
A: 16 nM

Q: What about the IC50 [9] of the same compound?
A: 8620 nM

Q: Which results are given for O=C(CCn1[se]c2ccccc2c1=O)Oc1ccc2ccc(=O)oc2c1?
A: IC50 [7]: 970 nM; IC50 [8]: 25 nM; IC50 [9]: 12500 nM

Q: Which IC50 [13] does the source give for O=C(O)c1cccc2c1OB(O)C(SCc1ccccc1)C2 (centres undefined) here?
A: 501 nM

Q: What about the IC50 [11] of the same compound?
A: 5010 nM

Q: Which results are given for SCC1SCC2Nc3ccccc3N21 (centres undefined)?
A: IC50 [3]: 1400 nM; IC50 [11]: 620 nM; Ki [12]: 77000 nM

Q: For CC1(C)[C@H](C(=O)O)N2C(=O)[C@@H](CS)[C@H]2S1(=O)=O, which IC50 [11] is on record?
A: 100 nM

Q: And the IC50 [14]?
A: 1400 nM

Q: What does the source list for O=c1c2ccccc2[se]n1-c1ccccc1 [EBSELEN]?
A: IC50 [7]: 1590 nM; IC50 [8]: 72 nM

Q: What does the source list for CC1(C)[C@H](C(=O)O)N2C(=O)[C@H](CS)[C@H]2S1(=O)=O?
A: IC50 [11]: 300 nM; IC50 [14]: 12000 nM

Q: For O=C(O)C(=O)CBr [BROMOPYRUVATE], which IC50 [8] is on record?
A: 2570 nM

Q: What about the inhibition [15] of the same compound?
A: 90.9%

Q: What about the inhibition (Bacteria [2]) of the same compound?
A: 33.3%

Q: For CCN(CC)c1ccc2cc(C(=O)NCCC[Se]C#N)c(=O)oc2c1, which IC50 [7] is on record?
A: 120 nM

Q: What about the IC50 [8] of the same compound?
A: 81 nM

Q: What about the IC50 [9] of the same compound?
A: 560 nM

Q: For C[C@H](NC(=O)CCS)C(=O)O, which Ki [10] is on record?
A: 68000 nM

Q: What about the Ki [16] of the same compound?
A: 5600 nM

Q: And the Ki [5]?
A: 6500 nM

Q: Which results are given for CC1(C)S[C@H]2CS[C@H](CS)N2[C@@H]1C(=O)O?
A: IC50 [3]: 360 nM; Ki [4]: 6000 nM; Ki [5]: 11000 nM

Q: Which IC50 [13] does the source give for O=C(O)c1cccc2c1OB(O)[C@@H](NC(=O)C1CCCCC1)C2 here?
A: 4420 nM

Q: And the IC50 [17]?
A: 2040 nM

Q: Which IC50 [7] does the source give for O=C(CCn1[se]c2ccccc2c1=O)ON1C(=O)CCC1=O here?
A: 530 nM

Q: What about the IC50 [8] of the same compound?
A: 45 nM

Q: What about the IC50 [9] of the same compound?
A: 7650 nM

Q: For CC(C)c1cccc2c(-c3cc(Cl)cc(Cl)c3)c(C(=O)O)[nH]c12, which IC50 [13] is on record?
A: 630 nM

Q: What about the IC50 [11] of the same compound?
A: 501 nM

Q: For O=C(N[C@@H](C(=O)O)c1ccc(Cn2cnnn2)s1)[C@@H](S)CCc1ccccc1, which IC50 [7] is on record?
A: 90 nM

Q: What about the IC50 [11] of the same compound?
A: 500 nM

Q: Which IC50 [13] does the source give for NCCN[C@H]1CC[C@H](CC(=O)N[C@H]2Cc3cccc(C(=O)O)c3OB2O)CC1 here?
A: 2510 nM

Q: And the IC50 [11]?
A: > 10000 nM

Q: And the IC50 [18]?
A: 5 nM

Q: What does the source list for CC(C)c1cccc2c(-c3ccc(CS(C)(=O)=O)c(Cl)c3)c(C(=O)O)[nH]c12?
A: IC50 [13]: 1260 nM; IC50 [11]: 50.1 nM; IC50 [19]: 1.26 nM

Q: Which IC50 [3] does the source give for CCOC(=O)[C@]1(CS)N[C@H](C(=O)O)C(C)(C)S1 here?
A: 100000 nM

Q: And the IC50 [11]?
A: 28000 nM

Q: What about the Ki [12] of the same compound?
A: 8000 nM

Q: With CC(C)c1cccc2c(-c3ccc(Cn4cncn4)cc3)c(C(=O)O)[nH]c12 as the compound, how does the IC50 [13] read?
A: 398 nM

Q: And the IC50 [11]?
A: 5010 nM

Q: What about the IC50 [19] of the same compound?
A: 1.58 nM
